pIC50: −log10 of the molar value.
Experiments:
[1] = biological target: T1, GSNOR (Homo sapiens, UniProt P11766); assay: GSNOR assay (inhibition of GSNOR activity in vitro); format: biochemical; settings: 0.240 mM GSNO, 0.300 mM NADH, pH 7.4, 25° C.; read-out: GSNOR inhibitor IC50
T1 construct: made in house; host or cells: E. coli
Description: Various compounds were tested in vitro for their ability to inhibit GSNOR activity.
Pre-cultures were grown from stabs of a GSNOR glycerol stock in 2XYT media containing 100 ug/ml ampicillin after an overnight incubation at 37° C. Cells were then added to fresh 2XYT (4 L) containing ampicillin and grown to an OD (A600) of 0.6-0.9 at 37° C. before induction. GSNOR expression was induced with 0.1% arabinose in an overnight incubation at 20° C.
E. coli cell paste was lysed by nitrogen cavitation and the clarified lysate purified by Ni affinity chromatography on an AKTA FPLC (Amersham Pharmacia). The column was eluted in 20 mM Tris pH 8.0/250 mM NaCl with a 0-500 mM imidazole gradient. […] GSNOR was recovered in the flowthrough fraction and for crystallography is further purified by Q-Sepharose and Heparin flowthrough chromatography in 20 mM Tris pH 8.0, 1 mM DTT, 10 uM ZnSO4.
GSNO and Enzyme/NADH Solutions are made up fresh each day. The Solutions are filtered and allowed to warm to room temperature. GSNO Solution: 100 mM NaPO4 (pH 7.4), 0.480 mM GSNO. 396 μL of GSNO Solution is added to a cuvette followed by 8 μL of test compound in DMSO (or DMSO only for full reaction control) and mixed with the pipette tip. Compounds to be tested are made up at a stock concentration of 10 mM in 100% DMSO. 2 fold serial dilutions are done in 100% DMSO. 8 μL of each dilution are added to an assay so that the final concentration of DMSO in the assay is 1%. The concentrations of compounds tested range from 100 to 0.003 μM. Enzyme/NADH Solution: 100 mM NaPO4 (pH 7.4), 0.600 mM NADH, 1.0 μg/mL GSNO Reductase. 396 μL of the Enzyme/NADH Solution is added to the cuvette to start the reaction. The cuvette is placed in the Cary 3E UV/Visible Spectrophotometer and the change in 340 nm absorbance/min at 25° C. is recorded for 3 minutes. The assays are done in triplicate for each compound concentration. IC50's for each compound are calculated using the standard curve analysis in the Enzyme Kinetics Module of SigmaPlot.
Final assay conditions: 100 mM NaPO4, pH 7.4, 0.240 mM GSNO, 0.300 mM NADH, 0.5 μg/mL GSNO Reductase and 1% DMSO. Final volume: 800 μL/cuvette.

[2] = biological target: T2, human NK3 receptor (Homo sapiens, UniProt P29371); assay: Human NK3 receptor binding assay at 10 μM; settings: 10 μM test compound; 0.4 nM [3H]SR142801; CHO cell membranes; read-out: percent inhibition at 10 μM, human NK3 receptor binding
T2 construct: expressed in transfected cells; host or cells: CHO cells
T2 sequence (P29371 1-465): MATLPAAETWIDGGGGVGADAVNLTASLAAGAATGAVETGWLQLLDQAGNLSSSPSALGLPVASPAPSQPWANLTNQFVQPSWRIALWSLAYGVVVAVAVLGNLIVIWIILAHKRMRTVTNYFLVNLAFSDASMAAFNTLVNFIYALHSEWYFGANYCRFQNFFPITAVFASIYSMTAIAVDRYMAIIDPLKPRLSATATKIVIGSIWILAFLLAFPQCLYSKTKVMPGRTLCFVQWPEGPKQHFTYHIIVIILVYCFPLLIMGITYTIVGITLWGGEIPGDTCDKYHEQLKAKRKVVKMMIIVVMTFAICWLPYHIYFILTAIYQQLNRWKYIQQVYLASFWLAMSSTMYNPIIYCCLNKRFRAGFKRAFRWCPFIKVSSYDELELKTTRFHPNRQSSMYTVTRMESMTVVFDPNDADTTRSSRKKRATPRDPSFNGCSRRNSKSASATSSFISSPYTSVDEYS
Description: Evaluation of the affinity of test compounds for the human neurokinin NK3 receptor from transfected CHO cells was performed using an antagonist radioligand binding assay. Antagonist activity was evaluated at a concentration of 10 μM for a representative subset of test compounds, and the results were expressed as the percent inhibition at that concentration.
Receptor binding assays were performed using crude membranes prepared from CHO cells expressing human NK3 receptor. Osanetant (SR142801), a non-peptide NK3 antagonist, was used as a ligand, and SB222200 was used as a positive control reference compound. The assay was performed with cell membrane homogenates (24 μg protein) incubated for 120 min at 22° C. with 0.4 nM [^3H]SR142801 in the absence or presence of the test compound in a buffer containing 20 mM Hepes/NaOH (pH 7.4), 120 mM NaCl, 1 mM MnCl2, 0.01% bacitracin, 0.002% aprotinin and 0.1% BSA. Following incubation, the samples were filtered rapidly under vacuum through glass fiber filters (GF/B, Packard) that had been presoaked with 0.3% PEI. The filters were rinsed several times with ice-cold 50 mM Tris/HCl using a 96-sample cell harvester (Unifilter, Packard), dried, and counted for radioactivity in a scintillation counter (Topcount, Packard) using a scintillation cocktail (Microscint 0, Packard). Each test compound was evaluated at a single concentration of 10 μM. The standard reference compound, SB222200, was tested in each experiment. Nonspecific binding was determined in the presence of 10 μM SB222200. The specific ligand binding to the receptor is defined as the difference between the total binding and the nonspecific binding. The results are expressed as a percent of control specific binding ((measured specific binding/control specific binding)×100) obtained in the presence of the test compounds.

[3] = biological target: T2, human NK3 receptor; assay: Human NK3 receptor binding assay determined by IC50; settings: 0.4 nM [3H]SR142801; CHO cell membranes
Description: Evaluation of the affinity of compounds for the human NK3 receptor from transfected CHO cells was performed using an antagonist radioligand binding assay. The antagonist activity of a representative subset of test compounds was evaluated over a range of concentrations, and the results were expressed as IC50 values.
Receptor binding assays were performed using crude membranes prepared from CHO cells expressing human NK3 receptor. Osanetant (SR142801), a non-peptide NK3 antagonist, was used as a ligand, and SB222200 was used as a positive control reference compound. […] The filters were rinsed several times with ice-cold 50 mM Tris/HCl using a 96-sample cell harvester (Unifilter, Packard), dried, and counted for radioactivity in a scintillation counter (Topcount, Packard) using a scintillation cocktail (Microscint 0, Packard). […] Nonspecific binding was determined in the presence of 10 μM SB222200. […] The IC50 values (concentration causing a half-maximal inhibition of control specific binding) and Hill coefficients (nH) were determined by non-linear regression analysis of the competition curves generated with mean replicate values using Hill equation curve fitting (Y=D+[(A−D)/(1+(C/C50)^nH)], where Y=specific binding, D=minimum specific binding, A=maximum specific binding, C=compound concentration, C50=IC50, and nH=slope factor). […]

[4] = biological target: T2, human NK3 receptor; assay: Human NK3 receptor binding assay at 1 uM; settings: 1 μM test compound; 0.4 nM [3H]SR142801; CHO cell membranes; read-out: percent inhibition at 1 μM, human NK3 receptor binding
Description: Evaluation of the affinity of compounds for the human NK3 receptor from transfected CHO cells was performed using an antagonist radioligand binding assay. Antagonist activity was evaluated at a concentration of 1 μM for a representative subset of test compounds, and the results were expressed as the percent inhibition at that concentration.
Receptor binding assays were performed using crude membranes prepared from CHO cells expressing human NK3 receptor. Osanetant (SR142801), a non-peptide NK3 antagonist, was used as a ligand, and SB222200 was used as a positive control reference compound. […] The filters were rinsed several times with ice-cold 50 mM Tris/HCl using a 96-sample cell harvester (Unifilter, Packard), dried, and counted for radioactivity in a scintillation counter (Topcount, Packard) using a scintillation cocktail (Microscint 0, Packard). Each test compound was evaluated at a single concentration of 1 μM. […] Nonspecific binding was determined in the presence of 10 μM SB222200. […] The results are expressed as a percent of control specific binding ((measured specific binding/control specific binding)×100) obtained in the presence of the test compounds.

T1 sequence (P11766 whole entry): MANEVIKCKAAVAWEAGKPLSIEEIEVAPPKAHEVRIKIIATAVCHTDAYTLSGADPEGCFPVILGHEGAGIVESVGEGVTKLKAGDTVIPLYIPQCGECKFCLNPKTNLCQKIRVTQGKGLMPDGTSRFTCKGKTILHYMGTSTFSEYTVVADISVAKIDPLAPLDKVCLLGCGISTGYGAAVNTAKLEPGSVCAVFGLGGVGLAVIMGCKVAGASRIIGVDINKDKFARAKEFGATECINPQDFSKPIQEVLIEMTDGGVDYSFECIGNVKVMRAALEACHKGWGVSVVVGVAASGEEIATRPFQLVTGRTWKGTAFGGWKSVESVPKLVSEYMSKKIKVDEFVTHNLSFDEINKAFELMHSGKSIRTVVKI

| Compound | pIC50 [1] | inhibition at 10 µM [2] | pIC50 [3] | inhibition at 1 µM [4] |
| --- | --- | --- | --- | --- |
| CCOc1cc(C2CC(=O)NC(c3ccccc3)=C2c2ccccc2)cc([N+](=O)[O-])c1O (stereo not shown) [Example 1, 4-(3-ethoxy-4-hydroxy-5-nitrophenyl)-5,6-diphenyl-3,4-dihydropyridin-2(1H)-one] | > 7.00 | > 50% | ~5.96 |  |
| CCOc1cc(C2CC(=O)NC(c3cccnc3)=C2c2ccsc2)cc([N+](=O)[O-])c1O (stereo not shown) [Example 2, 4-(3-ethoxy-4-hydroxy-5-nitrophenyl)-6-(pyridin-3-yl)-5-(thiophen-3-yl)-3,4-dihydropyridin-2(1H)-one] | > 7.00 | > 50% |  |  |
| CCOc1cc(C2CC(=O)NC(c3cnn(C)c3)=C2c2ccsc2)cc([N+](=O)[O-])c1O (stereo not shown) [Example 4, 4-(3-ethoxy-4-hydroxy-5-nitrophenyl)-6-(1-methyl-1H-pyrazol-4-yl)-5-(thiophen-3-yl)-3,4-dihydropyridin-2(1H)-one] | > 7.00 | > 50% |  |  |
| CCOc1cc(C2CC(=O)N(C)C(c3ccccc3)=C2c2ccccc2)cc([N+](=O)[O-])c1O (stereo not shown) [Example 16, 4-(3-ethoxy-4-hydroxy-5-nitrophenyl)-1-methyl-5,6-diphenyl-3,4-dihydropyridin-2(1H)-one] |  |  |  | > 50% |
| Cn1cc(C2=C(c3cccs3)C(c3cc(O)c(C(=O)O)c(F)c3)CC(=O)N2)cn1 (stereo not shown) [Example 17, 2-fluoro-6-hydroxy-4-(6-(1-methyl-1H-pyrazol-4-yl)-2-oxo-5-(thiophen-2-yl)-1,2,3,4-tetrahydropyridin-4-yl)benzoic acid] | > 7.00 |  |  |  |

Next, values leading:

| pIC50 [1] | inhibition at 10 µM [2] | pIC50 [3] | inhibition at 1 µM [4] | Compound |
| --- | --- | --- | --- | --- |
| > 7.00 |  |  |  | O=C1CC(c2ccc(C(=O)O)c(O)c2)C(c2ccsc2)=C(c2ccccc2)N1 (stereo not shown) [Example 7, 2-hydroxy-4-(2-oxo-6-phenyl-5-(thiophen-3-yl)-1,2,3,4-tetrahydropyridin-4-yl)benzoic acid] |
| > 7.00 |  |  |  | Cn1cc(C2=C(c3ccsc3)C(c3ccc(C(=O)O)c(O)c3)CC(=O)N2)cn1 (stereo not shown) [Example 9, 2-hydroxy-4-(6-(1-methyl-1H-pyrazol-4-yl)-2-oxo-5-(thiophen-3-yl)-1,2,3,4-tetrahydropyridin-4-yl)benzoic acid] |
| > 7.00 |  |  | > 50% | O=C1CC(c2cc(OCCO)c(O)c([N+](=O)[O-])c2)C(c2ccccc2)=C(c2ccccc2)N1 (stereo not shown) [Example 14, 4-(4-hydroxy-3-(2-hydroxyethoxy)-5-nitrophenyl)-5,6-diphenyl-3,4-dihydropyridin-2(1H)-one] |

— patent publication US9283213B2, “Dihydropyridin-2(1H)-one compounds as S-nitrosoglutathione reductase inhibitors and neurokinin-3 receptor antagonists” (N30 Pharmaceuticals, Inc., priority 2010, dated 2016)
